According to US7687494B2, “Substituted spirobenzazepines” (Janssen Pharmaceutica NV, priority 2003, dated 2010):

Assays:
[1] = target: T1, human V1a receptor (Homo sapiens, UniProt P37288); assay: In-vitro binding assay, 3H-arginine-8-vasopressin, V1a membranes; details: V1a (first value of V1a/V2)
Description: (§1) Assay buffer is 50 mM Tris-Cl, 5 mM MgCl2, 0.1% BSA (pH 7.5) containing 5 μg/ml of aprotinin, leupeptin, pepstatin, 50 μg/ml bacitracin, and 1 mM Pefabloc (4-(2-Aminoethyl)-benzenesulfonyl fluoride, hydrochloride manufactured by Roche Diagnostics Corporation, Indianapolis, Ind. and distributed by Boehringer Mannheim). H3 vasopressin is ^3H-arginine-8-vasopressin (NEN Life Sciences, Boston, Mass.; 68.5 Ci/mmol, final concentration in assay is 0.65-0.75 nM). Into wells of 96-well round bottom polypropylene plates are added buffer, test compound, membrane (containing human V1a or V2 receptor), and H3 vasopressin. The reaction plates are allowed to sit at room temperature for one hour. The samples are filtered through Unifilter GF/C plates (PerkinElmer Life Sciences, Boston, Mass.) presoaked in 0.3 polyethyleneimine. The plates are washed 5 times with cold physiological saline containing 0.05% Tween 20. After drying, the bottom of the filter plates are sealed and 0.025 ml of Microscint-20 (Packard Instrument Co, Meriden, Conn.) is added to each filter. The top of the plate is sealed, and the plate is counted. Non-specific binding is determined by the addition of 1.25 μM arginine-8-vasopressin in those wells. % Inh. is calculated
(§2) [formula] as follows: (B) V1a Vasopressin Receptor Functional Activity

[2] = target: T2, human V2 receptor (Homo sapiens, UniProt P30518); assay: In-vitro binding assay, 3H-arginine-8-vasopressin, V2 membranes; details: V2 (second value of V1a/V2)
Description: as §1, §2

[3] = target: T1, human V1a receptor; assay: V1a vasopressin receptor functional activity (intracellular calcium mobilization, FLIPR, V1a-HEK cells); assay type: cell-based; details: V1a (first value of V1a/V2); vasopressin-challenged transfected HEK-293 cells
Description: The V1a receptor is a G-protein coupled receptor, which upon activation triggers an increase in intracellular calcium mobilization. To evaluate compounds for their functional V1a receptor activity, HEK-293 cells were transfected with the human V1a receptor (V1a-HEK cells). HEK-293 cells were grown in DMEM (Dulbecco's modified Eagle Media) supplemented with 10% FBS and glutamine. HEK-cells were passed biweekly by trypsinization and seeded into 96 well plates at 33,000 cells per well. HEK-293 cells were transfected with human V1a receptor DNA using DMRIE-C reagent from Life Technologies (Carlsbad, Calif.). Stable lines were generated by selecting cells grown in culture media containing geneticin. After growing in Packard Clear-View black 96 well plates for 4-6 days, V1a-HEK cells were loaded with the calcium-sensitive fluorescence dye, FLUO-3 AM. Changes in intracellular calcium mobilization were measured by quantitating intracellular fluorescence using FLIPR (Fluorometric Imaging Plate Reader; Molecular Devices, Sunnyvale, Calif.). Test compounds were first added to the cells and the resulting changes in fluorescence measured to detect receptor agonistic activity. Five minutes later the cells were challenged with vasopressin to test compounds for their antagonistic activity. Receptor antagonists inhibit the ability of vasopressin to stimulate increases in intracellular fluorescence. IC50's were calculated.

[4] = target: T2, human V2 receptor; assay: V2 vasopressin receptor functional activity (cAMP accumulation, V2-HEK cells); assay type: cell-based; set-up: expressed in transfected cells; host or cells: HEK-293; details: V2 (second value of V1a/V2); vasopressin-stimulated cAMP in transfected HEK-293 cells
Description: The V2 receptor is also a G-protein coupled receptor which when activated induces an increase in cAMP turnover. Antagonism against the V2 receptor is determined by measuring cAMP accumulation in transfected HEK-293 cells expressing the human V-2 receptor (V2-HEK cells). Compounds are tested for their ability to block the stimulatory effects of vasopressin on cAMP accumulation. The cell content of cAMP is measured by radioimmunoassay using NEN flashplates.

T2 sequence (P30518 whole entry): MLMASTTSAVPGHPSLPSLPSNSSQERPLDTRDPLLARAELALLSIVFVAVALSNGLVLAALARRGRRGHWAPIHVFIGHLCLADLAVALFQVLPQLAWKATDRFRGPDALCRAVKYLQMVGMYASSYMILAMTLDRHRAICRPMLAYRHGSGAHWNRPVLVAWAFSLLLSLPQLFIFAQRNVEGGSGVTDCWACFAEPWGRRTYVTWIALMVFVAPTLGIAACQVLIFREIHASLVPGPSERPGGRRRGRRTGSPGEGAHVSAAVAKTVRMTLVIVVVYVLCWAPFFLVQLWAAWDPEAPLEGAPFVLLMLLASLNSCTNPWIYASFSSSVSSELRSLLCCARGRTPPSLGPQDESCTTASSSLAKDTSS
T1 sequence (P37288 whole entry): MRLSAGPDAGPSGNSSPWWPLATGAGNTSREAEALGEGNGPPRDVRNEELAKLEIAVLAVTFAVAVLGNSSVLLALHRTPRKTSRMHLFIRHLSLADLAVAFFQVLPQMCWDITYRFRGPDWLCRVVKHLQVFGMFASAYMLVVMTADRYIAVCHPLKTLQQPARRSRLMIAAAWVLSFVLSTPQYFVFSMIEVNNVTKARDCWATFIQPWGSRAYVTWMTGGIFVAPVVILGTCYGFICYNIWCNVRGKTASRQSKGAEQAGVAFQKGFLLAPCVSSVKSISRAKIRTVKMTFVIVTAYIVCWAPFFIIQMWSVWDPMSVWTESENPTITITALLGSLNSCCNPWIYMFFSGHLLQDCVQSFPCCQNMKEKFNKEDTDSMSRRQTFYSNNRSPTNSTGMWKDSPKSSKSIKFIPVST

IC50 [1] | IC50 [2] | IC50 [3] | IC50 [4] | Compound
5 nM | 30 nM | 38 nM | 52 nM | COc1cc(C(=O)N2CC[C@]3(C=C(C(=O)O)CC3)Cc3ccccc32)ccc1NC(=O)c1cc(F)ccc1Cl [Compound 29, (R)-4-(2-Chloro-5-fluorobenzoyl-3-methoxy-4-aminobenzoyl)-4-aza-3′-(carboxy)-[6,4]-spiro-[5,6]-benzoundec-2′-ene]
8 nM | 71 nM | 50 nM | 150 nM | CCOc1cc(C(=O)N2CC[C@]3(C=C(C(=O)O)CC3)Cc3ccccc32)ccc1NC(=O)c1cc(F)ccc1Cl [Compound 31, (R)-4-(2-Chloro-5-fluorobenzoyl-3-ethoxy-4-aminobenzoyl)-4-aza-3′-carboxy-[6,4]-spiro-[5,6]-benzoundec-2′-ene]
13 nM | 53 nM | 380 nM | 100 nM | O=C(O)C1=C[C@@]2(CC1)CCN(C(=O)c1ccc(NC(=O)c3cc(F)ccc3Cl)cc1)c1ccccc1C2 [reference compound]
5 nM | 11 nM | 4 nM |  | CN(C)CCNC(=O)C1=CC2(CC1)CCN(C(=O)c1ccc(NC(=O)c3ccccc3-c3ccccc3)cc1)c1ccccc1C2 (racemic) [A, 4-(2-phenylbenzoyl-4-aminobenzoyl)-3′-[2-(N,N-dimethylaminoethylcarbony)]-4-aza-[6,4]-spiro-[5,6]-benzoundec-2′-ene, reference compound]
